# Test system: human foetal lung fibroblasts
# Assay: not given
# Settings: cited from earlier work
SMILES,chemotaxis of human foetal lung fibroblasts induced by BAL from IPF patients,fibroblast chemotactic activity in bronchoalveolar lavage samples of IPF subjects
Cc1noc(-c2ccc(CSCCC(=O)O)cc2)c1NC(=O)OC(C)c1ccccc1Cl (centres unmarked) [Ki16425],blocked,inhibited

# Biological target: T1, human LPA1 (Homo sapiens, UniProt Q92633)
# T1 construct: expressed in transfected cells; host or cells: Chinese hamster ovary (CHO) cells
# Assay: LPA1 functional antagonist assay (LPA-induced calcium flux)
# Assay type: cell-based
# Settings: CHO cells overexpressing human LPA1, 10 nM LPA, read-out: hLPA1 IC50
# Description: The effectiveness of compounds of the present invention as LPA1 inhibitors can be determined in an LPA1 functional antagonist assay as follows:
# The cells were then equilibrated to room temperature for 30 minutes before the assay. […] IC50 values were determined by fitting data to a 4-parameter logistic equation (GraphPad Prism, San Diego Calif.).
# T1 sequence (Q92633 whole entry): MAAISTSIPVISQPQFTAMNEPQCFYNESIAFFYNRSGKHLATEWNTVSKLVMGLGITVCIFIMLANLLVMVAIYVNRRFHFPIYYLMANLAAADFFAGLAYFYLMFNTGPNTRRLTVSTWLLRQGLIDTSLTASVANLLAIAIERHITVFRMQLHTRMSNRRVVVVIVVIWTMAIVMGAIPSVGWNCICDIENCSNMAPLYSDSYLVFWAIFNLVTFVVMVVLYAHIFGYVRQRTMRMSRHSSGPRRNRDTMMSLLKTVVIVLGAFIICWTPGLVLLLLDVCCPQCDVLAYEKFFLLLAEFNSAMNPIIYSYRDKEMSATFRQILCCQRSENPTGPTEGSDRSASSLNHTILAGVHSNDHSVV
row,IC50 [µM],SMILES
1,0.204,"CN(Cc1c(-c2ccc(O[C@H]3CCC[C@H](C(=O)O)C3)cn2)cnn1C)C(=O)OCc1ccccc1 [Example 24, (1S,3S)-3-((6-(5-((((benzyloxy)carbonyl)(methyl)amino)methyl)-1-methyl-1H-pyrazol-4-yl)pyridin-3-yl)oxy)cyclohexane-1-carboxylic acid]"
2,0.02,"Cn1ncc(-c2ccc(O[C@H]3CCC[C@H](C(=O)O)C3)cn2)c1CNC(=O)OCc1ccccc1 [Example 25, (1S,3S)-3-((6-(5-((((benzyloxy)carbonyl)amino)methyl)-1-methyl-1H-pyrazol-4-yl)pyridin-3-yl)oxy)cyclohexane-1-carboxylic acid]"
3,0.014,CCCCCCOC(=O)NCc1c(-c2ccc(O[C@H]3CCC[C@H](C(=O)O)C3)c(C)n2)cnn1C [Example 26]
4,0.022,Cc1nc(-c2cnn(C)c2CNC(=O)OCC(C)(C)C)ccc1O[C@H]1CCC[C@H](C(=O)O)C1 [Example 27]
5,0.029,"Cc1nc(-c2cnn(C)c2CNC(=O)OCc2ccccc2)cnc1O[C@H]1CCC[C@H](C(=O)O)C1 [Example 31, (1S,3S)-3-((5-(5-((((benzyloxy)carbonyl)amino)methyl)-1-methyl-1H-pyrazol-4-yl)-3-methylpyrazin-2-yl)oxy)cyclohexane-1-carboxylic acid]"
6,0.211,"Cc1nc(-c2cnn(C)c2CN(C)C(=O)OCc2ccccc2)ccc1O[C@H]1CCC[C@H](C(=O)O)C1 [Example 32, (1S,3S)-3-((6-(5-((((benzyloxy)carbonyl)(methyl)amino)methyl)-1-methyl-1H-pyrazol-4-yl)-2-methyl-pyridin-3-yl)oxy)cyclohexane-1-carboxylic acid]"
7,0.013,"Cc1nc(-c2cnn(C)c2CNC(=O)OCc2ccccc2)ccc1O[C@H]1CCC[C@H](C(=O)O)C1 [Example 33, (1S,3S)-3-((6-(5-((((benzyloxy)carbonyl)amino)methyl)-1-methyl-1H-pyrazol-4-yl)-2-methylpyridin-3-yl)oxy)cyclohexane-1-carboxylic acid]"
8,0.01,"Cc1nc(-c2cnn(C)c2CNC(=O)OCC2CCC2)ccc1O[C@H]1CCC[C@H](C(=O)O)C1 [Example 35, (1S,3S)-3-((6-(5-((((cyclobutyl-methoxy)carbonyl)amino)methyl)-1-methyl-1H-pyrazol-4-yl)-2-methyl-pyridin-3-yl)oxy)cyclohexane-carboxylic acid]"
9,0.016,"Cc1nc(-c2cnn(C)c2CNC(=O)OCc2ccccc2)ncc1O[C@H]1CCC[C@H](C(=O)O)C1 [Example 37, (1S,3S)-3-((2-(5-((((benzyloxy)carbonyl)amino)methyl)-1-methyl-1H-pyrazol-4-yl)-4-methylpyrimidin-5-yl)oxy)cyclohexane-1-carboxylic Acid]"
10,0.105,"Cc1nc(-c2cnn(C)c2NC(=O)O[C@H](C)c2ccccc2)ncc1O[C@H]1CCC[C@H](C(=O)O)C1 [Example 40, (1S,3S)-3-((4-methyl-2-(1-methyl-5-((((R)-1-phenylethoxy)carbonyl)amino)-1H-pyrazol-4-yl)pyrimidin-5-yl)oxy)cyclohexane-1-carboxylic acid]"
11,0.08,"Cc1nc(-c2cnn(C)c2NC(=O)O[C@H](C)C2CC2)ncc1O[C@H]1CCC[C@H](C(=O)O)C1 [Example 41, (1S,3S)-3-((2-(5-((((R)-1-cyclopropyl-ethoxy)carbonyl)amino)-1-methyl-1H-pyrazol-4-yl)-4-methylpyrimidin-5-yl)oxy)cyclohexane-1-carboxylic acid]"
12,0.564,Cc1nc(-c2cnn(C)c2NC(=O)OCC(C)C)ncc1O[C@H]1CCC[C@H](C(=O)O)C1 [Example 43]
13,0.995,"Cc1nc(-c2cnn(C)c2NC(=O)OCC2CC2)ncc1O[C@H]1CCC[C@H](C(=O)O)C1 [Example 44, (1S,3S)-3-((2-(5-(((cyclopropyl-methoxy)carbonyl)amino)-1-methyl-1H-pyrazol-4-yl)-4-methylpyrimidin-5-yl)oxy)cyclohexane-1-carboxylic acid]"

row,SMILES,IC50 [µM]
1,"Cc1nc(-c2cnn(C)c2CNC(=O)OCC(C)C)ccc1O[C@H]1CCC[C@H](C(=O)O)C1 [Example 28, (1S,3S)-3-((6-(5-(((isobutoxy-carbonyl)amino)methyl)-1-methyl-1H-pyrazol-4-yl)-2-methylpyridin-3-yl)oxy)cyclohexane-1-carboxylic acid]",0.029
2,"Cc1nc(-c2cnn(C)c2CNC(=O)OCC(C)C)cnc1O[C@H]1CCC[C@H](C(=O)O)C1 [Example 29, (1S,3S)-3-((5-(5-(((isobutoxy-carbonyl)amino)methyl)-1-methyl-1H-pyrazol-4-yl)-3-methylpyrazin-2-yl)oxy)cyclohexane-1-carboxylic acid]",1.2
3,"CCCCOC(=O)NCc1c(-c2cnc(O[C@H]3CCC[C@H](C(=O)O)C3)c(C)n2)cnn1C [Example 30, (1S,3S)-3-((5-(5-(((butoxycarbonyl)amino)methyl)-1-methyl-1H-pyrazol-4-yl)-3-methylpyrazin-2-yl)oxy)cyclohexane-1-carboxylic acid]",0.283
4,"CC[C@H](C)COC(=O)NCc1c(-c2ccc(O[C@H]3CCC[C@H](C(=O)O)C3)c(C)n2)cnn1C [Example 34, (1S,3S)-3-((2-methyl-6-(1-methyl-5-(((((S)-2-methylbutoxy)carbonyl)amino)methyl)-1H-pyrazol-4-yl)pyridin-3-yl)oxy)cyclohexane-1-carboxylic acid]",0.02
5,"CC[C@H](C)COC(=O)NCc1c(-c2ncc(O[C@H]3CCC[C@H](C(=O)O)C3)c(C)n2)cnn1C [Example 36, (1S,3S)-3-((4-methyl-2-(I-methyl-5-(((((S)-2-methylbutoxy)carbonyl)amino)methyl)-1H-pyrazol-4-yl)pyrimidin-5-yl)oxy)cyclohexane-1-carboxylic Acid]",0.031
6,"Cc1nc(-c2cnn(C)c2CNC(=O)OCC(C)C)ncc1O[C@H]1CCC[C@H](C(=O)O)C1 [Example 38, (1S,3S)-3-((2-(5-(((isobutoxy-carbonyl)amino)methyl)-1-methyl-1H-pyrazol-4-yl)-4-methylpyrimidin-5-yl)oxy)cyclohexane-1-carboxylic acid]",0.218
7,"Cc1nc(-c2cnn(C)c2NC(=O)OC(C)(C)C)ncc1O[C@H]1CCC[C@H](C(=O)O)C1 [Example 39, (1S,3S)-3-((2-(5-((tert-butoxycarbonyl)amino)-1-methyl-1H-pyrazol-4-yl)-4-methylpyrimidin-5-yl)oxy)cyclohexane-1-carboxylic Acid]",1.52
8,"CCCCOC(=O)Nc1c(-c2ncc(O[C@H]3CCC[C@H](C(=O)O)C3)c(C)n2)cnn1C [Example 42, (1S,3S)-3-((2-(5-((butoxycarbonyl)amino)-1-methyl-1H-pyrazol-4-yl)-4-methylpyrimidin-5-yl)oxy)cyclohexane-1-carboxylic acid]",0.239

# Test system: mouse epithelial renal cell line, MCT
# Assay: not given
# Settings: co-treatment with LPA, MCT cells; cited from earlier work
row,SMILES,LPA induction of CTGF expression
1,Cc1noc(-c2ccc(CSCCC(=O)O)cc2)c1NC(=O)OC(C)c1ccccc1Cl (centres unmarked) [Ki16425],almost completely suppressed

# Test system: pancreatic cancer cell lines
# Assay: not given
# Settings: cited from earlier work
row,SMILES,in vitro migration in response to LPA and ascites from pancreatic cancer patients
1,Cc1noc(-c2ccc(CSCCC(=O)O)cc2)c1NC(=O)OC(C)c1ccccc1Cl (centres unmarked) [Ki16425],effectively blocked

# Same assay, conditions: highly peritoneal metastatic pancreatic cancer cell line; cited from earlier work
row,SMILES,LPA-induced and ascites-induced invasion activity
1,Cc1noc(-c2ccc(CSCCC(=O)O)cc2)c1NC(=O)OC(C)c1ccccc1Cl (centres unmarked) [Ki16425],blocked

# Test system: UUO mice
# Assay: not given
# Settings: compared with LPA1 (-/-) mice; cited from earlier work
row,SMILES,development of renal fibrosis in UUO mice
1,Cc1noc(-c2ccc(CSCCC(=O)O)cc2)c1NC(=O)OC(C)c1ccccc1Cl (centres unmarked) [Ki16425],closely resembled the profile of LPA1 (−/−) mice

# Test system: IPF patients
# Assay: not given
# Settings: 26-week clinical trial; cited from earlier work
row,SMILES,rate of FVC (forced vital capacity) decline
1,Cc1noc(-c2ccc(-c3ccc(C4(C(=O)O)CC4)cc3)cc2)c1NC(=O)O[C@H](C)c1ccccc1 [BMS-986020],significantly reduce

# Test system: nerve-injured mice
# Assay: not given
# Settings: pretreatment; cited from earlier work
row,SMILES,allodynia and hyperalgesia
1,C[C@@H](N)[C@H]1CC[C@H](C(=O)Nc2ccncc2)CC1 [Example Y-27632],completely abolished
